Reference: patent US9969964B2, “Disease-on-a-chip” (Purdue Research Foundation, priority 2013, dated 2018)

System: T4-2 tumor nodules
Test: Apoptosis (TUNEL assay combined with DAPI scoring of pyknotic and karyorrhectic nuclei) of T4-2 tumor nodules treated with chemotherapeutic drugs
Type: cell-based
Details: for sensitivity of tumor nodules to drug (apoptosis): T4-2 nodules cocultured with S1 non-neoplastic breast epithelium on flat surfaces compared to monocultures of tumor nodules, FIG. 21 and 22; for sensitivity of cancer cells to drug (apoptosis): T4-2 nodules cocultured with S1 within semicircular hemichannels versus on flat surfaces
Excerpt: The findings described above prompted a test of the sensitivity of T4-2 tumor nodules to the chemotherapeutic drugs bleomycin (BLM, a radiomimetic agent used in the laboratory to study cellular responses to treatments that compromise genome integrity) and doxorubicin (DOX, an anthracycline used for the treatment of breast cancer). In this study, apoptosis was utilized as an endpoint to evaluate drug responses and was quantified using the TUNEL assay combined with visual scoring for pyknotic and karyorrhectic nuclei via DAPI staining (i.e. nuclear condensation and fragmentation, respectively). Three types of T4-2 nodules were compared: monocultures, cocultures with S1 luminal epithelium on the flat surface of the chip, and cocultures with S1 epithelium in the semicircular hemichannels.
This difference is intriguing and could not be explained by the proliferation status within nodules on flat surfaces and in hemichannels (27.5%±1.8% and 24.2%±2.5% Ki67-positive cells, respectively; P=0.292, unpaired t-test, n>10 nodule sections corresponding to >700 nuclei). […] It is possible that the microenvironment or the geometry in the hemichannels promotes modifications in the nuclear organization of tumor cells, which may influence cellular responses to cytotoxic drugs. This view is supported by the measured differences in nuclear circularity reported above, and is in agreement with early recommendations that nuclear morphometric descriptors, including roundness, should be investigated as possible predictors of response to therapy. The disease-on-a-chip system used for coculture with cancer cells provides a system with potential for improved understanding of cancer development and drug assessment in tissue context.

Row | Compound | sensitivity of tumor nodules to drug (apoptosis) | sensitivity of cancer cells to drug (apoptosis) | toxicity to T4-2 nodules (drug concentration chosen to ease detection of increased sensitivity to genotoxic stress, should minimally affect cell survival)
1 | bleomycin [BLM] | increased sensitivity | significantly less | low toxicity
2 | COc1cccc2c1C(=O)c1c(O)c3c(c(O)c1C2=O)C[C@@](O)(C(=O)CO)C[C@@H]3O[C@H]1C[C@H](N)[C@H](O)[C@H](C)O1 [DOX, doxorubicin] | increased sensitivity | significantly less | –
